pKd: −log10 of the molar value.
Columns and labels:
Experiment in all cases: ITC
Assay type in all cases: binding
[1] = molecular target: T1, PAS1(23–168); dimerization helix-containing PAS1 of TodS (Pseudomonas putida, UniProt A5W4E3, V59A)
T1 construct: PAS1 sensor domain with dimerization helix, residues 23-168; N-terminal His6 tag kept; E. coli C41(DE3); dimer in solution

[2] = molecular target: T2, PAS1(23–168); dimerization helix-containing PAS1 of TodS (Pseudomonas putida, UniProt A5W4E3, F79Y)
T2 construct: PAS1 sensor domain with dimerization helix, residues 23-168; N-terminal His6 tag kept; E. coli C41(DE3); dimer in solution
T2 sequence (A5W4E3 23-168 F79Y): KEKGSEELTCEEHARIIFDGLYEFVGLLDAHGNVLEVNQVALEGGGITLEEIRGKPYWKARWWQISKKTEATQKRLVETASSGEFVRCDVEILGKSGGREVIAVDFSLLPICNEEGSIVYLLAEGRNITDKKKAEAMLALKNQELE

[3] = molecular target: T3, PAS1(23–168); dimerization helix-containing PAS1 of TodS (Pseudomonas putida, UniProt A5W4E3, W85H)
T3 construct: PAS1 sensor domain with dimerization helix, residues 23-168; N-terminal His6 tag kept; E. coli C41(DE3); dimer in solution
T3 sequence (A5W4E3 23-168 W85H): as the sequence (A5W4E3 23-168 F79Y) above, with Y57F, W63H counted along it

[4] = molecular target: T4, PAS1(23–168); dimerization helix-containing PAS1 of TodS (Pseudomonas putida, UniProt A5W4E3, E146A)
T4 construct: PAS1 sensor domain with dimerization helix, residues 23-168; N-terminal His6 tag kept; E. coli C41(DE3); dimer in solution
T4 sequence (A5W4E3 23-168, stated change not applied): as the sequence (A5W4E3 23-168 F79Y) above, with Y57F counted along it

[5] = molecular target: T5, PAS1(23–168); dimerization helix-containing PAS1 of TodS (Pseudomonas putida, UniProt A5W4E3, I114V)
T5 construct: PAS1 sensor domain with dimerization helix, residues 23-168; N-terminal His6 tag kept; E. coli C41(DE3); dimer in solution
T5 sequence (A5W4E3 23-168 I114V): as the sequence (A5W4E3 23-168 F79Y) above, with Y57F, I92V counted along it

[6] = molecular target: T6, PAS1(23–168); dimerization helix-containing PAS1 of TodS (Pseudomonas putida, UniProt A5W4E3, F46A)
T6 construct: PAS1 sensor domain with dimerization helix, residues 23-168; N-terminal His6 tag kept; E. coli C41(DE3); dimer in solution
T6 sequence (A5W4E3 23-168 F46A): as the sequence (A5W4E3 23-168 F79Y) above, with F24A, Y57F counted along it

[7] = molecular target: T7, PAS1(23–168); dimerization helix-containing PAS1 of TodS (Pseudomonas putida, UniProt A5W4E3)
T7 construct: PAS1 sensor domain with dimerization helix, residues 23-168; N-terminal His6 tag kept; E. coli C41(DE3); dimer in solution
T7 sequence (A5W4E3 23-168): as the sequence (A5W4E3 23-168 F79Y) above, with Y57F counted along it

T1 sequence (A5W4E3 23-168 V59A): as the sequence (A5W4E3 23-168 F79Y) above, with V37A, Y57F counted along it

Structure (SMILES)	pKd [1]	pKd [2]	pKd [3]	pKd [4]	pKd [5]	pKd [6]	pKd [7]
Cc1ccccc1 [toluene]	4.84	4.15	4.97	5.02	5.08	4.02	5.07
Cc1cccc(C)c1 [m-xylene]					5.21		5.02
